In patent US7166598B2, “Piperazine derivatives” (Astellas Pharma Inc., priority 1998, dated 2007):

melting point | Compound
159 to 161 °C | COc1cc(C[C@@H]2CN(CCN3[C@H](CO)CCC[C@@H]3CO)CCN2C(=O)c2cc(C(F)(F)F)cc(C(F)(F)F)c2)ccc1F.Cl.Cl
200 to 204 °C | Cl.Cl.Cl.O=C(c1cc(Cl)cc(C(F)(F)F)c1)N1CCN(CCN2CCc3ncccc3C2)C[C@H]1Cc1ccc(Cl)c(O)c1
195 to 200 °C | COc1cc(C[C@@H]2CN(CCN3CCc4ncccc4C3)CCN2C(=O)c2cc(C(F)(F)F)cc(C(F)(F)F)c2)ccc1C(F)(F)F.Cl.Cl.Cl
180 to 190 °C | COc1cc(C(=O)N2CCN(CCN3CCc4ncccc4C3)C[C@H]2Cc2c[nH]c3ccccc23)cc(C(F)(F)F)c1.Cl.Cl.Cl
123 to 149 °C | COCC1(COC)CN(CCN2CCN(C(=O)c3cc(C(F)(F)F)cc(C(F)(F)F)c3)[C@H](Cc3ccc(C(F)(F)F)cc3)C2)CCO1.Cl.Cl
220 to 250 °C | COc1cc(C(=O)N2CCN(CCN3CCC(F)(F)CC3)C[C@H]2Cc2ccc(Cl)cc2)cc(C(F)(F)F)c1.Cl.Cl
196 to 198 °C | COC[C@@H]1CN(CCN2CCN(C(=O)c3cc(C(F)(F)F)cc(C(F)(F)F)c3)[C@H](Cc3ccc(F)c(F)c3)C2)CCO1.Cl.Cl
174 to 180 °C | Cl.Cl.Cl.O=C(c1cc(C(F)(F)F)cc(C(F)(F)F)c1)N1CCN(CCN2CCc3ncccc3C2)C[C@H]1Cc1ccc(C(F)(F)F)cc1
81 to 91 °C | COC[C@@H]1CN(CCN2CCN(C(=O)c3cc(-c4ccncc4)cc(C(F)(F)F)c3)[C@H](Cc3ccc(C(F)(F)F)cc3)C2)CCO1.Cl.Cl.Cl
125 to 130 °C | COc1cc(C[C@@H]2CN(CC#CCN3CCOCC3(C)C)CCN2C(=O)c2cc(C(F)(F)F)cc(C(F)(F)F)c2)ccc1F.Cl.Cl
125 to 135 °C | COc1cc(C(=O)N2CCN(CCN3C[C@@H](C)O[C@@H](C)C3)C[C@H]2Cc2ccc(C(F)(F)F)c(OC)c2)cc(C(F)(F)F)c1.Cl.Cl
120 to 150 °C | CC1(C)COCCN1CC#CCN1CCN(C(=O)c2cc(C(F)(F)F)cc(C(F)(F)F)c2)[C@H](Cc2ccc(Cl)cc2)C1.Cl.Cl
125 to 130 °C | COc1cc(C[C@@H]2CN(CCCc3cccnc3)CCN2C(=O)c2cc(C(F)(F)F)cc(C(F)(F)F)c2)ccc1F.Cl.Cl
150 to 155 °C | CO[C@H]1CN(CCN2CCN(C(=O)c3cc(C(F)(F)F)cc(C(F)(F)F)c3)[C@H](Cc3ccc(Cl)c(O)c3)C2)C[C@@H]1OC.Cl.Cl
70 to 90 °C | COC[C@@H]1CN(CCN2CCN(C(=O)c3cc(OC)cc(C(F)(F)F)c3)[C@H](Cc3ccc(Cl)cc3)C2)CCO1.Cl.Cl
215 to 224 °C | COc1cc(C(=O)N2CCN(Cc3cccnc3)C[C@H]2Cc2ccc(Cl)c(O)c2)cc(C(F)(F)F)c1.Cl.Cl
167 to 172 °C | COC[C@@H]1COCCN1CCN1CCN(C(=O)c2cc(C(F)(F)F)cc(C(F)(F)F)c2)C(Cc2ccc(C)c(O)c2)C1.Cl.Cl (stereo partly shown)
155.5 to 170.1 °C | Cl.Cl.Cl.O=C(c1cc(C(F)(F)F)cc(C(F)(F)F)c1)N1CCN(CCN2CCc3ncccc3C2)C[C@H]1Cc1ccc(F)cc1
90 to 110 °C | COc1cc(C(=O)N2CCN(CCCc3cccnc3)C[C@H]2Cc2ccc(Cl)c(O)c2)cc(C(F)(F)F)c1.Cl.Cl
156 to 163 °C | CNc1cc(C[C@@H]2CN(CCN3CCO[C@H](COC)C3)CCN2C(=O)c2cc(C(F)(F)F)cc(C(F)(F)F)c2)ccc1C.Cl.Cl.Cl
111.5 to 118.3 °C | COc1cc(C(=O)N2CCN(CCCc3cccnc3)C[C@H]2Cc2ccc(F)cc2)cc(C(F)(F)F)c1.Cl.Cl

melting point | Compound
142 to 182 °C | COC[C@@H]1CN(CCN2CCN(C(=O)c3cc(C(F)(F)F)cc(C(F)(F)F)c3)[C@H](Cc3ccc(C(F)(F)F)cc3)C2)[C@@H](C)CO1.Cl.Cl
180 to 184 °C | CC1(C)COCCN1CC#CCN1CCN(C(=O)c2cc(C(F)(F)F)cc(C(F)(F)F)c2)[C@H](Cc2ccc(F)c(O)c2)C1.Cl.Cl
126 to 155 °C | COC[C@@H]1CN(CCN2CCN(C(=O)c3cc(OC)cc(C(F)(F)F)c3)[C@H](Cc3ccc(C(F)(F)F)cc3)C2)CCO1.Cl.Cl
176 to 178 °C | COC[C@@H]1CN(CCN2CCN(C(=O)c3cc(F)cc(C(F)(F)F)c3)[C@H](Cc3ccc(Cl)c(O)c3)C2)CCO1.Cl.Cl
166 to 170 °C | Cl.Cl.O=C(c1cc(C(F)(F)F)cc(C(F)(F)F)c1)N1CCN(CCN2CCC(F)(F)CC2)C[C@H]1Cc1ccc(Cl)c(O)c1
82.3 to 88.2 °C | Cc1cc(C(=O)N2CCN(CCN3C[C@@H](C)O[C@@H](C)C3)C[C@H]2Cc2ccc(Cl)cc2)cc(C(F)(F)F)c1.Cl.Cl
175 to 185 °C | COc1cc(C[C@@H]2CN(CCN3CCc4ncccc4C3)CCN2C(=O)c2cc(C(F)(F)F)cc(C(F)(F)F)c2)ccc1F.Cl.Cl.Cl
164 to 167 °C | Cl.Cl.O=C(c1cc(C(F)(F)F)cc(C(F)(F)F)c1)N1CCN(CCN2[C@H](CO)CCC[C@@H]2CO)C[C@H]1Cc1ccc(C(F)(F)F)cc1
209 to 253 °C | Cl.Cl.O=C(c1cc(C(F)(F)F)cc(C(F)(F)F)c1)N1CCN(CCN2CCC(F)(F)CC2)C[C@H]1Cc1ccc(C(F)(F)F)cc1
240 to 241 °C | Cl.Cl.Cl.O=C(c1cc(C(F)(F)F)cc(C(F)(F)F)c1)N1CCN(CCN2CCc3ncccc3C2)C[C@H]1Cc1ccc(F)c(O)c1
209 to 214 °C | CN(C)c1cc(C(=O)N2CCN(CCN3CCc4ncccc4C3)C[C@H]2Cc2ccc(Cl)cc2)cc(C(F)(F)F)c1.Cl.Cl.Cl
180 to 190 °C | COC[C@@H]1CN(CCN2CCN(C(=O)c3cc(C(F)(F)F)cc(C(F)(F)F)c3)[C@H](Cc3ccc(F)c(OC)c3)C2)CCO1.Cl.Cl
264 to 270.6 °C | Cl.Cl.O=C(c1cc(C(F)(F)F)cc(C(F)(F)F)c1)N1CCN(CCN2CCC(F)(F)CC2)C[C@H]1Cc1ccc(F)cc1
129 to 133 °C | COC[C@@H]1CN(CCN2CCN(C(=O)c3cc(C(F)(F)F)cc(C(F)(F)F)c3)[C@H](Cc3ccc(F)cc3)C2)CCO1.Cl.Cl
190 to 200 °C | COc1cc(C(=O)N2CCN(Cc3cccnc3)C[C@H]2Cc2c[nH]c3ccccc23)cc(C(F)(F)F)c1.Cl.Cl
150 to 175 °C (dec.) | C[C@@H]1CN(CCN2CCN(C(=O)c3cc(C(F)(F)F)cc(C(F)(F)F)c3)[C@H](Cc3ccc(Cl)cc3)C2)C[C@H](C)O1.Cl.Cl
168 to 195 °C | C[C@@H]1CN(CCN2CCN(C(=O)c3cc(C(F)(F)F)cc(C(F)(F)F)c3)[C@H](Cc3ccc4ccccc4c3)C2)C[C@H](C)O1.Cl.Cl
172 to 203 °C (dec.) | Cl.Cl.Cl.O=C(c1cc(C(F)(F)F)cc(C(F)(F)F)c1)N1CCN(CCN2CCc3ncccc3C2)C[C@H]1Cc1ccc(Cl)cc1
146 to 149 °C | COC[C@@H]1CN(CCN2CCN(C(=O)c3cc(C(F)(F)F)cc(C(F)(F)F)c3)[C@H](Cc3ccc(OC)cc3)C2)CCO1.Cl.Cl
150 to 180 °C | COC[C@@H]1CN(CCN2CCN(C(=O)c3cc(C(F)(F)F)cc(C(F)(F)F)c3)C(Cc3ccc(C)c(O)c3)C2)C(C)(C)CO1.Cl.Cl (stereo partly shown)
148.7 to 152.3 °C | COc1cc(C(=O)N2CCN(CCN3CCc4ncccc4C3)C[C@H]2Cc2ccc(F)cc2)cc(C(F)(F)F)c1.Cl.Cl.Cl

melting point | Compound
237 to 243 °C (dec.) | Cl.Cl.Cl.O=C(c1cc(C(F)(F)F)cc(C(F)(F)F)c1)N1CCN(CCN2CCc3ncccc3C2)C[C@H]1Cc1ccc(Cl)c(O)c1
145 to 149 °C | COC[C@@H]1CN(CCN2CCN(C(=O)c3cc(C(F)(F)F)cc(C(F)(F)F)c3)[C@H](Cc3ccc(Cl)c(OC)c3)C2)CCO1.Cl.Cl
245 to 265 °C | Cc1ccc(C[C@@H]2CN(CCN3CCc4sccc4C3)CCN2C(=O)c2cc(C(F)(F)F)cc(C(F)(F)F)c2)cc1O.Cl.Cl
190 to 199 °C | COc1cc(C(=O)N2CCN(CC#CCN3CCOCC3(C)C)C[C@H]2Cc2ccc3ccccc3c2)cc(C(F)(F)F)c1.Cl.Cl
60 to 80 °C | Cc1ccc(CC2CN(C/C=C/c3cccnc3)CCN2C(=O)c2cc(C(F)(F)F)cc(C(F)(F)F)c2)cc1O.Cl.Cl (stereo not shown)
139 to 151 °C | COc1cc(C(=O)N2CCN(CCN3C[C@@H](C)O[C@@H](C)C3)C[C@H]2Cc2ccc(C(F)(F)F)cc2)cc(C(F)(F)F)c1.Cl.Cl
173 to 176 °C | COC[C@@H]1CN(CCN2CCN(C(=O)c3cc(F)cc(C(F)(F)F)c3)[C@H](Cc3ccc(C(F)(F)F)cc3)C2)CCO1.Cl.Cl
190 to 200 °C | Cl.Cl.O=C(c1cc(C(F)(F)F)cc(C(F)(F)F)c1)N1CCN(CCN2CCC(F)(F)CC2)C[C@H]1Cc1ccc(F)c(O)c1
221 to 224 °C | Cl.Cl.O=C(c1cc(C(F)(F)F)cc(C(F)(F)F)c1)N1CCN(CCN2CCC[C@H]2CO)C[C@H]1Cc1ccc(C(F)(F)F)cc1
148 to 153 °C | COC[C@@H]1CN(CCN2CCN(C(=O)c3cc(Cl)cc(C(F)(F)F)c3)[C@H](Cc3ccc(Cl)cc3)C2)CCO1.Cl.Cl
188 to 200 °C | COc1cc(C(=O)N2CCN(CCN3C[C@@H](C)O[C@@H](C)C3)C[C@H]2Cc2c[nH]c3ccccc23)cc(C(F)(F)F)c1.Cl.Cl
182 to 195 °C | CSc1cc(C(=O)N2CCN(CCN3CCc4ncccc4C3)C[C@H]2Cc2ccc(Cl)cc2)cc(C(F)(F)F)c1.Cl.Cl.Cl
221 to 228 °C | Cl.Cl.Cl.O=C(c1cc([N+](=O)[O-])cc(C(F)(F)F)c1)N1CCN(CCN2CCc3ncccc3C2)C[C@H]1Cc1ccc(Cl)cc1
188 to 193 °C | COc1cc(C(=O)N2CCN(CCN3C[C@@H](C)O[C@@H](C)C3)C[C@H]2Cc2ccc3ccccc3c2)cc(C(F)(F)F)c1.Cl.Cl
188 to 195 °C | C[C@@H]1CN(CCN2CCN(C(=O)c3cc(C(F)(F)F)cc(S(C)(=O)=O)c3)[C@H](Cc3ccc(C(F)(F)F)cc3)C2)C[C@H](C)O1.Cl.Cl
130 to 137.3 °C | Cl.Cl.O=C(c1cc(C(F)(F)F)cc(C(F)(F)F)c1)N1CCN(Cc2cccnc2)C[C@H]1Cc1ccc(F)cc1
160 to 169 °C | COC[C@@H]1CN(CCN2CCN(C(=O)c3cc(C(F)(F)F)cc(C(F)(F)F)c3)[C@H](Cc3ccc(Cl)c(O)c3)C2)CCO1.Cl.Cl
177 to 182 °C | COc1cc(C(=O)N2CCN(CCN3C[C@@H](C)O[C@@H](C)C3)C[C@H]2Cc2ccc(Cl)c(O)c2)cc(C(F)(F)F)c1.Cl.Cl
89 to 110.2 °C | C[C@@H]1CN(CCN2CCN(C(=O)c3cc(C(F)(F)F)cc(C(F)(F)F)c3)[C@H](Cc3ccc(F)cc3)C2)C[C@H](C)O1.Cl.Cl
